Source: the supplement of paper PMC10307832

What was measured:
Assay in all cases: relative viability (nuclei count vs DMSO), 5 days (fraction); higher = more cells survive
[1] = compound: Cc1ccc2nc(NCCN)c3ncc(C)n3c2c1 + CC(C)C[C@H](NC(=O)[C@H](Cc1ccccc1)NC(=O)c1cnccn1)B(O)O [Bortezomib] (partner 0.002 µM)
Procedure, shortened: (§1)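 For relative viability, nuclei counts in treated wells were divided by those in vehicle wells. Lung cancer cell lines had been pin-tool dosed in 1536-well plates the day after seeding and cultured for 5 days, then fixed and stained in one step (final 0.05% Triton X-100, 1% formaldehyde, 1 ug/ml Hoechst) and imaged at 4×. Doses were one drug alone or a fixed anchor-drug dose plus five library-drug doses (not always all listed) in √10 steps, and values are duplicate-plate medians.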

[2] = compound: Cc1ccc2nc(NCCN)c3ncc(C)n3c2c1 + CCNC(=O)c1noc(-c2cc(C(C)C)c(O)cc2O)c1-c1ccc(CN2CCOCC2)cc1 [Luminespib] (partner 0.01 µM)
Procedure, shortened: as §1

[3] = compound: Cc1ccc2nc(NCCN)c3ncc(C)n3c2c1 + Cc1nc(Nc2ncc(C(=O)Nc3c(C)cccc3Cl)s2)cc(N2CCN(CCO)CC2)n1 [Dasatinib] (partner 0.075 µM)
Procedure, shortened: as §1

Salubrinal + Lapatinib = compound: O=C(/C=C/c1ccccc1)NC(NC(=S)Nc1cccc2cccnc12)C(Cl)(Cl)Cl [Salubrinal] + CS(=O)(=O)CCNCc1ccc(-c2ccc3ncnc(Nc4ccc(OCc5cccc(F)c5)c(Cl)c4)c3c2)o1 [Lapatinib] (partner 2 µM)
Procedure, shortened: as §1

UMC-11
relative viability ([1]; first compound 0.04 µM): 0.818
relative viability ([1]; first compound 0.1265 µM): 0.809
relative viability ([1]; first compound 0.4 µM): 0.667
relative viability ([1]; first compound 1.265 µM): 0.795
relative viability ([1]; first compound 4 µM): 0.671
relative viability ([2]; first compound 0.04 µM): 1.02
relative viability ([2]; first compound 0.1265 µM): 0.834
relative viability ([2]; first compound 0.4 µM): 1
relative viability ([2]; first compound 1.265 µM): 0.996
relative viability ([2]; first compound 4 µM): 0.894
relative viability ([3]; first compound 0.04 µM): 0.475
relative viability ([3]; first compound 0.1265 µM): 0.477
relative viability ([3]; first compound 0.4 µM): 0.431
relative viability ([3]; first compound 1.265 µM): 0.407
relative viability ([3]; first compound 4 µM): 0.387
relative viability (Salubrinal + Lapatinib; first compound 0.08 µM): 0.931
relative viability (Salubrinal + Lapatinib; first compound 0.253 µM): 0.918
relative viability (Salubrinal + Lapatinib; first compound 0.8 µM): 1.48
relative viability (Salubrinal + Lapatinib; first compound 2.53 µM): 1.11
relative viability (Salubrinal + Lapatinib; first compound 8 µM): 1.16
